{"source": "ChEMBL document CHEMBL3044950", "about": "“Insecticidal activity of Paraherquamides, including paraherquamide H and paraherquamide I, two new alkaloids isolated from Penicillium cluniae” (2006)"}
{"test_system": "Oncopeltus fasciatus", "experiment": "Insecticidal activity against Oncopeltus fasciatus fourth-instar nymphs assessed as induction of insect mortality after compound topical application measured 72 hr post compound application", "assay_type": "functional", "units": {"LD50": "µg"}}
{"smiles": "C[C@H]1CCN2C[C@]34C[C@@]5(C(=O)Nc6c5ccc5c6OC=CC(C)(C)O5)C(C)(C)[C@@H]3C[C@]12C(=O)N4C", "note": "[PARAHERQUAMIDE E]", "LD50": 0.089}
{"smiles": "CN1C(=O)[C@]23C[C@@H]4C(C)(C)[C@@]5(C[C@@]41CN2CC[C@@]3(C)O)C(=O)Nc1c5ccc2c1OC=CC(C)(C)O2", "note": "[Paraherquamide A]", "LD50": 0.32}
{"smiles": "CN1C(=O)[C@]23C[C@H]4C(C)(C)[C@@]5(C[C@@]41CN2C(=O)C[C@@]3(C)O)C(=O)Nc1c5ccc2c1OC=CC(C)(C)O2", "LD50": 0.91}
{"smiles": "CN1C(=O)[C@]23C[C@H]4C(C)(C)[C@@]5(C[C@@]41C[N+]2([O-])CC[C@@]3(C)O)C(=O)Nc1c5ccc2c1OC=CC(C)(C)O2", "note": "(stereo not given in full) [N-OXIDE PARAHERQUAMIDE]", "LD50": 7.01}
{"smiles": "CN1C(=O)[C@@]23CCCN2C[C@@]12C[C@@]1(C(=O)Nc4c1ccc1c4OC=CC(C)(C)O1)C(C)(C)[C@@H]2C3", "note": "[PARAHERQUAMIDE B]", "LD50": 16.54}
